These results are taken from patent US7407954B2, “Thieno-(1,3)-oxazin-4-ones with lipase inhibiting activity” (Alizyme Therapeutics Limited, priority 2001, dated 2008).

Assay [1] concerns the target T1, porcine pancreatic lipase (Sus scrofa, UniProt P00591).
T1 sequence (P00591 1-450): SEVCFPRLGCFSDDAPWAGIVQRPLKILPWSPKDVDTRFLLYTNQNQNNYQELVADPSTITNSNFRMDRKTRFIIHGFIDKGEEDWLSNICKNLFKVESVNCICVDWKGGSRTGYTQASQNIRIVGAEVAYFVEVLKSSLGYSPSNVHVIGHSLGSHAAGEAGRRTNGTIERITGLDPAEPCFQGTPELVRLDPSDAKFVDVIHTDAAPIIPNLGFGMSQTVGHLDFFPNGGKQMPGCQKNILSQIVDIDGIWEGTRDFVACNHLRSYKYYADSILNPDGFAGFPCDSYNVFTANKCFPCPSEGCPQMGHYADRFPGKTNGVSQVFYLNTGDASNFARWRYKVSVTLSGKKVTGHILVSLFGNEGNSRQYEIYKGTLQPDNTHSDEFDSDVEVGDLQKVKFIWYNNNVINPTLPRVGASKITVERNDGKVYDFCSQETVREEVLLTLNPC
Kind of assay: Lipase enzyme activity, NaOH titration method (lipid micelles). It is filed as biochemical. Particulars: NaOH titration assay. The procedure: Measurement of Lipase Enzyme Activity Using a NaOH Titration Method
The inhibitory activity of the selected compound to pancreatic lipase was measured in the assay described in Pasquier et al; 1996, Vol 7, Nutritional Biochemistry, 293-302.
Log dose/response curves were constructed using a range of inhibitor concentrations.
Selected thieno-oxazinone compounds were tested in the NaOH titration assay. In this assay, the activity of porcine pancreatic lipase in a system containing lipid micelles is recorded. These conditions are therefore similar to those encountered in the gastrointestinal tract.

Another assay deals with T2, human pancreatic lipase (Homo sapiens, UniProt P16233).
T2 sequence (P16233 17-465): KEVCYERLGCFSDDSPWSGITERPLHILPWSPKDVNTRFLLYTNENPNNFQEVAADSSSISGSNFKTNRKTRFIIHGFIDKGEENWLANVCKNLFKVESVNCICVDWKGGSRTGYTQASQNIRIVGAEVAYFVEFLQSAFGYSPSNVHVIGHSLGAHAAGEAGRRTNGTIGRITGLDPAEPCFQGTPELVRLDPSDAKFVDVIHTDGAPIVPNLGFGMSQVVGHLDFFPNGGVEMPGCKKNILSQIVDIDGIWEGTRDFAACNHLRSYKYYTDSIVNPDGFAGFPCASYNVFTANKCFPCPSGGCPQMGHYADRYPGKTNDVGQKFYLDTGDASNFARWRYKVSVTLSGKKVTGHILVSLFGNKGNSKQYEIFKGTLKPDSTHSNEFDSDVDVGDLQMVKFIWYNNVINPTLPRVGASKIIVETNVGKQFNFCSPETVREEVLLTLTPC
The experiment in a line: Lipase activity, quinine diimine dye colorimetric assay (Sigma Lipase-PS). The assay is classed as biochemical. The procedure: Measurement of Lipase Activity Using a Quinine Diimine Dye Calorimetric Assay
The inhibitory activity of the selected compounds to pancreatic lipase was measured in the following assay available from Sigma Ltd (Lipase-PS™, catalog number 805-A):
The glycerol released from the action of pancreatic and monoglyceride lipase was oxidised to release H2O2. The peroxidase reaction step then produces a quinine dye which is pink in colour and absorbs light at a wavelength of 550 nm.
Individual test compounds were dissolved in DMSO (dimethyl sulphoxide) at 10 mM. DMSO was used to avoid any problems with compounds being water-insoluble.
For individual compounds, the IC50 (concentration at which lipase activity is inhibited to one half of the maximum) was calculated by measuring the inhibitory activity from log-dose response curves using a range of inhibitor concentrations.
A range of standard compounds were assayed in the quinine dye calorimetric assay which provides a rapid method to measure lipase inhibitory activity.

For the compound `CCCCCCCCCCCCCCCCNc1nc2sc(C)cc2c(=O)o1` [Compound 45, 2-Hexadecylamino-6-methyl-4H-thieno-[2,3-d][1,3]oxazin-4-one], the IC50 in assay [1] is at most 1000 nM; on human pancreatic lipase it was below 100 nM.

For the compound `Cc1cc2c(=O)oc(Nc3ccccc3)nc2s1` [Compound 46, 6-Methyl-2-phenylamino-4H-thieno[2,3-d][1,3]oxazin-4-one], the IC50 in assay [1] was at most 1000 nM; at human pancreatic lipase, below 100 nM.

Regarding `CCCCNc1nc2sc(C)cc2c(=O)o1` [Compound 47, 2-Butylamino-6-methyl-4H-thieno[2,3-d][1,3]oxazin-4-one], the figures for the IC50 (in assay [1]; against human pancreatic lipase) were at most 1000 nM and below 100 nM, respectively.

As for `O=c1oc(Nc2ccc(Oc3ccccc3)cc2)nc2sc(Cl)cc12` [Compound 48, 6-Chloro-2-(4-phenoxy)phenylamino-4H-thieno[2,3-d][1,3]oxazin-4-one], the IC50 in assay [1] is at most 1000 nM; at human pancreatic lipase, below 100 nM.

On to `CCCCCCCCCCCCc1cc2c(=O)oc(Nc3ccc(Oc4ccccc4)cc3)nc2s1` [Compound 49, 6-Dodecyl-2-(4-phenoxy)phenylamino-4H-thieno[2,3-d][1,3]oxazin-4-one], for which the IC50 in assay [1] is at most 1000 nM; at human pancreatic lipase it was below 100 nM.

Take `O=c1oc(Nc2ccc(Oc3ccccc3)cc2)nc2sc(Cc3ccccc3)cc12` [Compound 50, 6-Phenylmethyl-2-(4-phenoxy)phenylamino-4H-thieno[2,3-d][1,3]oxazin-4-one]: the IC50 in assay [1] was at most 1000 nM; on human pancreatic lipase, below 100 nM.
